Entries after “also recorded” stand apart in the source; their conditions may differ. Like-named read-outs stand apart in the source and are kept apart here. Residues, ends and D or L forms follow the SMILES beside them. *: point of attachment. Cbz = O=C(OCc1ccccc1)*
Tests used:
[1] = test system: RBM20 dependent titin PEVK4-13 splicing reporter; assay: Dual luciferase splicing reporter assay (DLR assay), RBM20 co-transfected; format: cell-based, human; conditions: for IC50: Homo sapiens
Source text: The objective of our study was to identify and evaluate small molecules with the potential to modulate alternative splicing via an unbiased chemical high-throughput screening approach. Using transient transfection of a dual luciferase splicing reporter assay (DLR-assay) in HEK293.EBNA cells and a RBM20 expression construct, we investigated >34.000 substances for their effect on alternative exon exclusion from our RBM20 dependent titin PEVK4-13 splicing reporter. For the primary screen (pilot screen), each compound was tested at 10 μM (single point) and compared to an untreated control. Positive hits leading to differential exon usage (exceeding three standard deviations) were picked for independent validation in 9 serial 2-fold dilutions starting at 20 μM. Compounds that produced a concentration dependent effect were validated manually in the 96-well format and cytotoxicity was evaluated. To minimize the detection of false positives, we excluded compounds with structural homology to each luciferase’s natural substrate. To determine the EC50 of candidates we calculated dose response curves using a non-linear least-squares fitting routine available within the GNUPLOT package (accessible online: http://ic50.tk/index.html). […] Compounds that produced a concentration depend effect in the DLR-assay and altered the alternative transcript levels were regarded as validated alternative splicing modulators.
(§1) Cells transfected were at a confluency of 50-60%.
5000 HEK293.EBNA cells were seeded in clear bottom, white 384-well plates (Corning by Sigma-Aldrich Chemie GmbH, Munich, Germany) using an automated cell dispenser (Biotek, Bad Friedrichshall, Germany). 24 h after cell seeding the expression plasmids were delivered using a Freedom EVO® robotic workstation (TECAN, Maennedorf, Switzerland) equipped with a MultiChannel Arm™. Cells were transiently transfected with 45 ng plasmid DNA ([…] and 40 ng RBM20 or 24 ng of the negative control pcDNA3.1 ad 45 ng with bacterial expression plasmid pBSSK). Compounds were added to the plates the following day using the same robotic platform. Luciferase activity was determined using Dual-Glo® Luciferase Assay System (Promega GmbH, Mannheim, Germany) on an Infinite® M1000 Pro (TECAN, Maennedorf, Switzerland) plate reader around 60 hours post-transfection. Assay robustness was evaluated by calculation z’ scores using an online tool provided by the Screening Unit at FMP Berlin (http://www.screeningunit-fmp.net/tools/z-prime.php).

HEK293.EBNA cells = assay: Cell viability, resazurin based staining (PrestoBlue); parameters: species or system human; conditions: for IC50: Homo sapiens, HEK293-EBNA, HEK293 cells, 60 h post-transfection, RBM20/titin reporter transfected, read-out: Viability IC50
Source text: as §1

[2] = biological target: T1, RNA recognition motif (RRM) of RBM20 (Homo sapiens, UniProt Q5T481); assay: Surface plasmon resonance, immobilized RBM20-RRM; format: binding; conditions: SPR, increasing concentrations
T1 construct: The RRM domain of RBM20 was cloned into pGEX-6P-1 bacterial expression plasmid; GST (N); made in house; host or cells: E. coli Rosetta 2 (DE3)
T1 sequence (Q5T481 518-593 limits assumed): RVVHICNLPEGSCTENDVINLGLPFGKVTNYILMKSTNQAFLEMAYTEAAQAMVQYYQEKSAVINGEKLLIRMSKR
Protocol: The RRM domain of RBM20 was cloned into pGEX-6P-1 bacterial expression plasmid and expressed in E. coli Rosetta™ 2 (DE3) (Novagen by Merck KgaA, Darmstadt, Germany). After purification of the recombinant protein using glutathione-sepharose (Sigma-Aldrich Chemie GmbH, Munich, Germany) the purified fraction was dialyzed o/n in reaction buffer (20 mM HEPES pH7, 200 mM NaCl, 1 mM MgCl2, 10% glycerol). The surface plasmon resonance study (SPR) was performed on a Biacore T100 (GE Healthcare Europe GmbH, Freiburg, Germany) using amine coupling. Chip surface was activated with 0.2 M EDC/0.4 M NHS. 30 μg of human serum albumin (HSA) (positive control) or RBM20-RRM were linked to the activated chip surface at pH 4.5 in 10 mM sodium acetate.

[3] = biological target: human serum albumin (HSA) (Homo sapiens, UniProt P02768); assay: Surface plasmon resonance, immobilized human serum albumin (positive control); format: binding; conditions: SPR, increasing concentrations
[4] = test system: HEK293 cells gene expression; assay: Expression profiling of digitoxin treated HEK293 cells (GSE36058); format: cell-based, human; conditions: digitoxin treated HEK293, GEO dataset GSE36058
Protocol: Expression profiling data (Gene Expression Omnibus—GSE36058) was analyzed using AltAnalyze [16]—gene expression cut-off = 1.0.

[5] = biological target: Na+/K+ ATPase human erythrocytes; parameters: method as in PMID 11072868; conditions: cited from earlier work
[6] = test system: titin minigene TTN Ex241-43 transcripts; assay: RT-PCR / RT-qPCR of transcripts from titin minigene TTN Ex241-43 (I96-98); format: cell-based, human; conditions: HEK293 transfected with RBM20 and minigene I96-98
Source text: The objective of our study was to identify and evaluate small molecules with the potential to modulate alternative splicing via an unbiased chemical high-throughput screening approach. Using transient transfection of a dual luciferase splicing reporter assay (DLR-assay) in HEK293.EBNA cells and a RBM20 expression construct, we investigated >34.000 substances for their effect on alternative exon exclusion from our RBM20 dependent titin PEVK4-13 splicing reporter. For the primary screen (pilot screen), each compound was tested at 10 μM (single point) and compared to an untreated control. Positive hits leading to differential exon usage (exceeding three standard deviations) were picked for independent validation in 9 serial 2-fold dilutions starting at 20 μM. Compounds that produced a concentration dependent effect were validated manually in the 96-well format and cytotoxicity was evaluated. To minimize the detection of false positives, we excluded compounds with structural homology to each luciferase’s natural substrate. To determine the EC50 of candidates we calculated dose response curves using a non-linear least-squares fitting routine available within the GNUPLOT package (accessible online: http://ic50.tk/index.html). We evaluated the effect on splice activity on the RNA level by RT-qPCR of isoforms generated from a titin minigene containing TTN Ex241-43 (corresponding to TTN I-band exon I96-98) in the presence of the potential splice modulators. […]
Total RNA from HEK293.EBNA cells was extracted using RNeasy Micro Kit (Qiagen, Hilden, Germany) according to the manufacturer’s instructions. […] Quantitative RT-PCR was performed using SYBRGreen master mix (Applied Biosystems by Thermo Fisher Scientific Inc., USA) on a 7900 HT RT-cycler (Applied Biosystems by Thermo Fisher Scientific, Inc., USA). […] To quantification gene expression, we used the ΔΔCT method normalized to 18S or to the alternative transcripts generated from the splicing reporter. PSI values were calculated as ratio of unspliced and spliced reporter transcript. […]

RBM20 protein levels = assay: RBM20 protein expression by immunoblot in co-transfected HEK293 cells; format: cell-based, human; conditions: proteasome inhibitor added to digoxin treated HEK293 cells
Protocol: For immunodetection, HEK293.EBNA samples were harvested by rinsing them of the cell culture substrate using PBS at 37°C and subsequently used for downstream processing or snap frozen in liquid nitrogen. For protein extraction samples were suspended in RIPA buffer (50 mM Tris pH 8.0, 150 mM NaCl, 1% NP-40, 0.25% sodium deoxycholate, 1.0 mM EDTA; 0.1% SDS) and lysed via sonication with 20 bursts at 70% energy using a VialTweeter (Hielscher Ultrasonics GmbH, Teltow, Germany). Protein concentration was estimated after 20’ precipitation of cell debris at 13,000xg for 20 min at 4°C using BCA assay (Life Technologies GmbH, Darmstadt, Germany [23225]). Samples were kept cool at any time. Lysates were separated by SDS-PAGE [14] and blotted on PVDF membranes. Blotted antigens were probed with mouse anti-c-myc 9E10 ([M5546], Sigma-Aldrich Chemie GmbH, Munich, Germany) tag antibody at 1:2000 and detected using a sheep anti-mouse IgG-HRP (GE Healthcare Europe GmbH, Freiburg, Germany [NA9310V]) conjugate 1:5000 follow by visualization with AceGlow™ (VWR PEQL37) on a FUSION FX7 CCD camera system (Vilber Lourmat Deutschland GmbH, Eberhardzell, Germany).

[7] = dose response fit, head prints [μM], fits IC50 only
[8] = HEK293, Table 1, read-out: IC50 Splicing HEK293 cells
[9] = FLuc/RLuc ratio, HEK293 cells, 96-well format, inset table of figure, read-out: Splicing IC50

Sequence of human serum albumin (HSA) (P02768 25-609): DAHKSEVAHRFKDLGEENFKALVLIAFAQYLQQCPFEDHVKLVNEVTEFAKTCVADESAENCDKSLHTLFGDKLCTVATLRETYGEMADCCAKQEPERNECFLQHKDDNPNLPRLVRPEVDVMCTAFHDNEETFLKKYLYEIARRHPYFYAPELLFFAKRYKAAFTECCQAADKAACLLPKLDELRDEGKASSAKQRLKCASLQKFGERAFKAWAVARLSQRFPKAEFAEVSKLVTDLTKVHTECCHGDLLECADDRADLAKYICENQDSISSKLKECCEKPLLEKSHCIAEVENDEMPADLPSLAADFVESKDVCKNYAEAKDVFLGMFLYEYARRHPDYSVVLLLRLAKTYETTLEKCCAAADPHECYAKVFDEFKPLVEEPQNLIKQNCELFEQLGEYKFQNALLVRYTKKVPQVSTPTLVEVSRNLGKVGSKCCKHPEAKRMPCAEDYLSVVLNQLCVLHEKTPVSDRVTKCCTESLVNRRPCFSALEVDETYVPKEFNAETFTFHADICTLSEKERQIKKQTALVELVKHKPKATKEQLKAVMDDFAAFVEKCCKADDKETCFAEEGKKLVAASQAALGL

## CC(=O)O[C@H]1CC[C@@]2(C)[C@H](CC[C@@H]3[C@@H]2CC[C@]2(C)[C@@H](C4=CC(=O)OC4)CC[C@]32O)C1 [Digitoxigenin-3-acetate, Digitoxigenin 3-acetate]
[1]; DLR assay, HEK293
  effect on RBM20-mediated titin splicing (in words): independently validated

## C[C@]12CC[C@H](O)C[C@H]1CC[C@@H]1[C@@H]2CC[C@]2(C)[C@@H](C3=CC(=O)OC3)CC[C@]12O [Digitoxigenin]
HEK293.EBNA cells
  IC50: 468 ± 26.9 nM
[1]; HEK293, read-out: Splicing IC50
  IC50: 417 ± 99.5 nM
[2]
  binding to RNA recognition motif (RRM) of RBM20: not the RNA recognition motif (RRM) of RBM20
[3]
  binding to human serum albumin (HSA): strongly bind

## C[C@H]1O[C@@H](O[C@H]2[C@@H](O)C[C@H](O[C@H]3[C@@H](O)C[C@H](O[C@H]4CC[C@@]5(C)[C@H](CC[C@@H]6[C@@H]5CC[C@]5(C)[C@@H](C7=CC(=O)OC7)CC[C@]65O)C4)O[C@@H]3C)O[C@@H]2C)C[C@H](O)[C@@H]1O [Digitoxin]
HEK293.EBNA cells
  IC50: 66.3 ± 5.5 nM
HEK293.EBNA cells; [7]
  Viability Hill Coeff.: 2.0260 ± 0.2941
HEK293.EBNA cells; fit maximum of relative viability, head prints [μM], fits IC50 only
  Viability Max: 1.0033 ± 0.0211
[1]; DLR assay, HEK293
  effect on RBM20-mediated titin splicing (in words): efficiently inhibit RBM20 mediated splicing
[1]; [8]
  IC50: 56 nM
[1]; [7]
  Splicing Hill Coeff.: 2.3582 ± 1.3110
[2]
  binding to RNA recognition motif (RRM) of RBM20: not the RNA recognition motif (RRM) of RBM20
[3]
  binding to human serum albumin (HSA): strongly bind
[4]
  proteins associated with RBM20 dependent splicing down regulated (of 39): 10
  proteins associated with RBM20 dependent splicing upregulated (of 39): 8
[5]
  IC50: 0.25 nM

## C[C@]12CC[C@H](O)C[C@H]1CC[C@@H]1[C@@H]2CC[C@]2(C)[C@@H](C3=CC(=O)OC3)[C@@H](O)C[C@]12O [Gitoxigenin]
[1]; DLR assay, HEK293
  effect on RBM20-mediated titin splicing (in words): independently validated

## C[C@]12CCC(=O)C=C1CC[C@@H]1[C@@H]2[C@@H](O)C[C@@]2(C)[C@H]1CC[C@]2(O)C(=O)CO [Hydrocortisone]
[1]; DLR assay, HEK293
  effect on RBM20-mediated titin splicing (in words): did not interfere with splicing; also recorded: does not interfere with splicing activity; also recorded: do not interfere with RBM20 dependent splicing

## COc1ccc(-c2cc(=O)c3c(O)cc(O)c(-c4cc(-c5cc(=O)c6c(O)cc(O)cc6o5)ccc4OC)c3o2)cc1 [Isoginkgetin]
HEK293.EBNA cells
  IC50: 10800 ± 13100 nM
[1]; [9]
  IC50: 178000 nM
[1]; only at the highest toxic dose
  dose at which an effect on RBM20 dependent splicing and general mRNA maturation was found: 30 µM
[6]
  intron retention / mRNA maturation (in words): reduces alternative splicing and mRNA maturation; also recorded: affects mRNA maturation with increasing concentration

## CC(C)C[C@@H](C=O)NC(=O)[C@H](CC(C)C)NC(=O)[C@H](CC(C)C)NC(=O)OCc1ccccc1 [MG132] (Cbz-Leu-Leu-Leu-aldehyde)
RBM20 protein levels
  rescue of RBM20 protein expression under digoxin: did not rescue RBM20 protein expression

## CO[C@H]1C[C@H](O[C@H]2CC[C@@]3(C)[C@H](CC[C@@H]4[C@@H]3CC[C@]3(C)[C@@H](C5=CC(=O)OC5)[C@@H](OC(C)=O)C[C@]43O)C2)O[C@@H](C)[C@@H]1O [Oleandrin]
HEK293.EBNA cells
  IC50: 30.5 ± 1.2 nM
[1]; DLR assay HEK293, read-out: splicing IC50
  IC50: 20 nM

## C[C@@H]1O[C@@H](O[C@H]2C[C@@H](O)[C@]3(CO)[C@H]4[C@H](O)C[C@]5(C)[C@@H](C6=CC(=O)OC6)CC[C@]5(O)[C@@H]4CC[C@]3(O)C2)[C@H](O)[C@H](O)[C@H]1O [Ouabain]
[1]; DLR assay, HEK293
  effect on RBM20-mediated titin splicing (in words): suppresses RBM20 mediated titin splicing
[1]; [8]
  IC50: 1670 nM
[5]
  IC50: 0.56 nM

## C[C@]12CC[C@H]3[C@@H](CC[C@]4(O)C[C@@H](O)CC[C@]34CO)[C@@]1(O)CC[C@@H]2C1=CC(=O)OC1 [Strophanthidol]
HEK293.EBNA cells
  IC50: 3070 ± 634 nM
[1]; [9]
  IC50: 3840 ± 443 nM

## Cymarol
[1]; DLR assay, HEK293
  effect on RBM20-mediated titin splicing (in words): independently validated
[1]; DLR assay, N = 4
  concentration at which effect on titin splicing starts: < 100 nM

— paper PMC5995442, “Drug discovery with an RBM20 dependent titin splice reporter identifies cardenolides as lead structures to improve cardiac filling” (PLoS ONE, 2018)
